Biological target: orphan nuclear receptor 4A1 (NR4A1) (Homo sapiens, UniProt P22736)
Experiment: ITC with the NR4A1 LBD; also Trp fluorescence quenching (KD […]) and GAL4-NR4A1 reporter assay
Assay type: binding

orphan nuclear receptor 4A1 (NR4A1), sequence (P22736 360-598 limits assumed): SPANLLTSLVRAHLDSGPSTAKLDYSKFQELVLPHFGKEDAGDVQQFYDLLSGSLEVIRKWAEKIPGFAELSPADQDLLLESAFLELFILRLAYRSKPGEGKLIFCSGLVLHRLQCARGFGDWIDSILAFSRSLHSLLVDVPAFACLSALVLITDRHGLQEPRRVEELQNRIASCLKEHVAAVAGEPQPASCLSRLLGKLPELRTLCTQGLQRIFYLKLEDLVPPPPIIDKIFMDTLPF

COc1cc(/C=C/C(=O)N2CCC=CC2=O)cc(OC)c1OC [piperlongumine] gave a Kd of 4.97 µM.
